Test results: ChEMBL document CHEMBL1135307, “Novel diamide-based inhibitors of IMPDH” (Bioorg Med Chem Lett, 2002)

Molecular target: Inosine-5'-monophosphate dehydrogenase 2 (Homo sapiens, UniProt P12268)
Assay: Inhibition of human Inosine-5'-monophosphate dehydrogenase 2

Row | SMILES | IC50 [nM]
1 | CC(C)(C)NC(=O)C(=O)Nc1ccc(-c2cnco2)c(Cl)c1 | 55
2 | COc1cc(NC(=O)CC(=O)Nc2ccccc2)ccc1-c1cnco1 | 400
3 | COc1cc(NC(=O)C(=O)NC(C)(C)CN(C)C)ccc1-c1cnco1 | 47
4 | CC(C)(C)NC(=O)C(=O)Nc1ccc(-c2cnco2)c(Br)c1 | 50
5 | COC(=O)C(C)(C)NC(=O)C(=O)Nc1ccc(-c2cnco2)c(OC)c1 | 74
6 | COc1cc(NC(=O)C(=O)N(C)C(C)(C)C)ccc1-c1cnco1 | > 10000
7 | COc1cc(NC(=O)C(=O)NC(C)(C)C)ccc1-c1cnco1 | 10
8 | COc1cc(NC(=O)C(=O)Nc2cccc(CNC(=O)O[C@@H]3CCOC3)c2)ccc1-c1cnco1 | 30
9 | COc1cc(NC(=O)CC(=O)Nc2cccc(C)c2)ccc1-c1cnco1 | 440
10 | COc1cc(NC(=O)C(=O)N(C)c2ccccc2)ccc1-c1cnco1 | > 10000
11 | COc1cc(NC(=O)C(=O)NC(C)C)ccc1-c1cnco1 | > 10000
12 | COc1cc(NC(=O)C(=O)NC(C)(C)CO)ccc1-c1cnco1 | 19
13 | CC(C)(C)NC(=O)C(=O)Nc1ccc(-c2cnco2)cc1 | > 10000
14 | Cc1ncoc1-c1ccc(NC(=O)C(=O)NC(C)(C)C)cc1 | > 10000
15 | COc1cc(NC(=O)C(=O)NCc2ccccc2)ccc1-c1cnco1 | > 10000
16 | COc1cc(NC(=O)C(=O)NC2CCCCC2)ccc1-c1cnco1 | > 10000
17 | COc1cc(NC(=O)C(=O)NNc2ccccc2)ccc1-c1cnco1 | > 10000
18 | CCCNC(=O)C(=O)Nc1ccc(-c2cnco2)c(OC)c1 | > 10000
19 | COc1cc(NC(=O)C(=O)Nc2ccccc2)ccc1-c1cnco1 | 52
20 | COc1cc(NC(=O)C(=O)NC(C)(C)C(=O)O)ccc1-c1cnco1 | > 10000
21 | COc1cc(NC(=O)C(=O)NC2(CO)CCCC2)ccc1-c1cnco1 | 18
